This note sets out measurements from patent publication US12509447B2, “Small molecule compound” (Technoderma Medicines Pte Ltd, priority 2019, dated 2025).

Bounds are passed on as bounds.

Assay type in all cases: biochemical
The target of test [1] is JAK2 (Homo sapiens, UniProt O60674). Description: Inhibition of JAK kinase activity, EZ Reader microfluidic phosphorylation of peptide substrate: JAK2. The following applies: JAK2 kinase 1 nM; highest final concentration 10 μM, 1:3 serial dilution, 8 points, duplicates. The text has this:
(§1) EZ Reader available from PerkinElmer can be used for detecting the phosphorylation of polypeptide substrates catalyzed by kinases. This device is based on microfluidic separation technology, and can directly detect fluorescence labeled substrates and products. The separation step is achieved in a microfluidic chip by controlling the pressure and electric field intensity. In a kinase experiment, the product conversion rate is generally controlled at 20-30%. This biological assay method is used for identifying the inhibitory effect of the compounds on JAK.
(§2) The compound powder was dissolved in DMSO, sealed and stored in a refrigerator at −20° C. The in-house compound Ref1 was used as a positive control for testing of JAK1, JAK2 and Tyk2, and Ref2 was used as a positive control for testing of JAK3.
(§3) • S2.1. 1M HEPES buffer: 0.5M HEPES free acid and 0.5M HEPES sodium salt are weighed, added into ultrapure water for dissolution, brought to a desired volume, filtered and stored in a refrigerator at 4° C. • S2.2. 40 mM ATP solution: dissolved in a 50 mM HEPES buffer solution, prepared into 40 mM, aliquoted, and cryopreserved in a refrigerator at −20° C. • S2.3. 0.5% Tween 20: 100% Tween 20 was diluted with ultrapure water, and stored in a refrigerator at 4° C. • S2.4. 35% bovine serum albumin: a 35% bovine serum albumin solution is prepared in ultrapure water, aliquoted, and stored in a refrigerator at −20° C. • S2.5. 1M dithiothreitol solution: dithiothreitol is formulated into a 1M solution with ultrapure water, aliquoted, and stored in a refrigerator at −20° C. • S2.6. 0.5 mM Jaktide Peptide substrate solution: it is dissolved in 50 mM HEPES to 0.5 mM, aliquoted, and stored in a refrigerator at −20° C. • S2.7. 0.5 mM IRStide Peptide substrate solution: it is dissolved in 50 mM HEPES to 0.5 mM, aliquoted, and stored in a refrigerator at −20° C. • S2.8. Assay Buffer: 20 mM HEPES buffer, pH 7.4, 10 mM magnesium chloride, 0.01% bovine serum albumin BSA, 0.0005% Tween-20, and a 1 mM dithiothreitol solution. • S2.9. Stop Buffer: 180 mM HEPES buffer, 20 mM ethylenediamine tetraacetic acid (EDTA), and 0.2% Coating Reagent 3. • S2.10. Separation Buffer: 100 mM HEPES buffer, 10 mM EDTA, 0.0005% Tween 20, 0.1% Coating Reagent 3, and 1% dimethyl sulfoxide. 3. Experimental Procedures • S3.1. Preparation of compound plate
(§4) The compound is dissolved in dimethyl sulfoxide to 10 mM, a certain volume is taken and diluted to 0.6 mM, 10 μl of the diluted 0.6 mM solution is taken and added into a 384 microplate or 1:3 serial dilution, with a total of 8 concentration points. • S3.2. Compound layout
(§5) • positive control (HPE1): Ref1, final concentration: 10 μM • positive control (HPE1): Ref2, final concentration: 10 μM • negative control (ZPE): DMSO, with a final concentration of 1.6% • Compound: the highest final concentration at 10 μM, 1:3 serial dilution, with 8 concentration points and in duplicates. 4. Experimental operation steps • S4.1. the experimental plate was added with 250 nl of the compound per well with ECHO, and centrifuged at 1,000 rpm for 1 minute; • S4.2. the precipitate was added with 5 μl of the experimental buffer, and shaken for several seconds to fully dissolve the compound; • S4.3. the solution was added with 5 μl of a 3× substrate solution, as well as 5 μl of a 3× kinase solution, and centrifuged at 800 rpm for 1 minute; • S4.4. The final concentrations of JAK1, JAK2, JAK3 and Tyk2 kinases in the reaction system are 20, 1, 1 and 1 nM, respectively. • S4.5. the reaction system is incubated at room temperature, wherein the incubation time of each kinase is different, and there are differences in incubation time of different batches of kinases. • S4.6. When the reaction reaches 20%-30%, the reaction system is added with 15 μl of the stop buffer to terminate the reaction, and centrifuged at 1,000 rpm for 2 minutes. • S4.7. The precipitate was placed onto a EZ Reader for plate reading. • S4.8. […]

For test [2], the target named is Tyk2 (Homo sapiens, UniProt P29597). Description: Inhibition of JAK kinase activity, EZ Reader microfluidic phosphorylation of peptide substrate: Tyk2. The settings on record: Tyk2 kinase 1 nM; highest final concentration 10 μM, 1:3 serial dilution, 8 points, duplicates.
Text: as §1, §2, §3, §4, §5

Test [3] addresses T1, JAK3 (Homo sapiens, UniProt P52333).
T1 sequence (P52333 1-1124): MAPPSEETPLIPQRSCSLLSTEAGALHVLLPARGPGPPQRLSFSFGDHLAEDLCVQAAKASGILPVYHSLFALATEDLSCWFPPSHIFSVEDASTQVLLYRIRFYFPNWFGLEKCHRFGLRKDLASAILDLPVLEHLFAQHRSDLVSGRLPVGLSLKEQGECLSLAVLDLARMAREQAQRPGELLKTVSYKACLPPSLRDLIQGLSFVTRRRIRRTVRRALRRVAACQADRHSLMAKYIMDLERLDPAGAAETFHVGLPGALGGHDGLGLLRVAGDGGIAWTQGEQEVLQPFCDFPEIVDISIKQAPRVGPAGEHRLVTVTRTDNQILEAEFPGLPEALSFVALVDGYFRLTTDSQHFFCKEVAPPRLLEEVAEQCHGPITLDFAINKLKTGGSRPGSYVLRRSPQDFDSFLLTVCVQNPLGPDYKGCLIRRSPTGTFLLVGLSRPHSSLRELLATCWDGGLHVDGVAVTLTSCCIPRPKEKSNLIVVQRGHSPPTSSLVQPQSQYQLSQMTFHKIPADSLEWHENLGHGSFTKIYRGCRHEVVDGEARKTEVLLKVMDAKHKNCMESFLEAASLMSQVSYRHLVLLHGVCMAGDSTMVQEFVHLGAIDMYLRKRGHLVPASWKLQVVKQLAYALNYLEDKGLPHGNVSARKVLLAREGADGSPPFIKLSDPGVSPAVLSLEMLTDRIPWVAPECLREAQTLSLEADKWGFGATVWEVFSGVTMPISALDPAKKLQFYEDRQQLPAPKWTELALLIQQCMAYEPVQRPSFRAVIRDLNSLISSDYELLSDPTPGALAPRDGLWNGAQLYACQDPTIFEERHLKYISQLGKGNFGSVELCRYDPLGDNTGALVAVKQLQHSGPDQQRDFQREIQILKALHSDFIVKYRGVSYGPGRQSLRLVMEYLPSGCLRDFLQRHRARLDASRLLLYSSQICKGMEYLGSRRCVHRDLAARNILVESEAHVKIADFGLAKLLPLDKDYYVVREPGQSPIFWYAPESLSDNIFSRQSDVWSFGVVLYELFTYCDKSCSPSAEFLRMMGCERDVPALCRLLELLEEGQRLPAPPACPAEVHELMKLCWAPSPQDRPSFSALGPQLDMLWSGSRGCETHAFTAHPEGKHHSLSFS
Description: Inhibition of JAK kinase activity, EZ Reader microfluidic phosphorylation of peptide substrate: JAK3. The settings on record: JAK3 kinase 1 nM; highest final concentration 10 μM, 1:3 serial dilution, 8 points, duplicates.
Text: as §1, §2, §3, §4, §5

For test [4], the target named is JAK1 (Homo sapiens, UniProt P23458). Kind of test: Inhibition of JAK kinase activity, EZ Reader microfluidic phosphorylation of peptide substrate: JAK1. The following applies: JAK1 kinase 20 nM; highest final concentration 10 μM, 1:3 serial dilution, 8 points, duplicates.
Text: as §1, §2, §3, §4, §5

Chain of Tyk2 (P29597 whole entry): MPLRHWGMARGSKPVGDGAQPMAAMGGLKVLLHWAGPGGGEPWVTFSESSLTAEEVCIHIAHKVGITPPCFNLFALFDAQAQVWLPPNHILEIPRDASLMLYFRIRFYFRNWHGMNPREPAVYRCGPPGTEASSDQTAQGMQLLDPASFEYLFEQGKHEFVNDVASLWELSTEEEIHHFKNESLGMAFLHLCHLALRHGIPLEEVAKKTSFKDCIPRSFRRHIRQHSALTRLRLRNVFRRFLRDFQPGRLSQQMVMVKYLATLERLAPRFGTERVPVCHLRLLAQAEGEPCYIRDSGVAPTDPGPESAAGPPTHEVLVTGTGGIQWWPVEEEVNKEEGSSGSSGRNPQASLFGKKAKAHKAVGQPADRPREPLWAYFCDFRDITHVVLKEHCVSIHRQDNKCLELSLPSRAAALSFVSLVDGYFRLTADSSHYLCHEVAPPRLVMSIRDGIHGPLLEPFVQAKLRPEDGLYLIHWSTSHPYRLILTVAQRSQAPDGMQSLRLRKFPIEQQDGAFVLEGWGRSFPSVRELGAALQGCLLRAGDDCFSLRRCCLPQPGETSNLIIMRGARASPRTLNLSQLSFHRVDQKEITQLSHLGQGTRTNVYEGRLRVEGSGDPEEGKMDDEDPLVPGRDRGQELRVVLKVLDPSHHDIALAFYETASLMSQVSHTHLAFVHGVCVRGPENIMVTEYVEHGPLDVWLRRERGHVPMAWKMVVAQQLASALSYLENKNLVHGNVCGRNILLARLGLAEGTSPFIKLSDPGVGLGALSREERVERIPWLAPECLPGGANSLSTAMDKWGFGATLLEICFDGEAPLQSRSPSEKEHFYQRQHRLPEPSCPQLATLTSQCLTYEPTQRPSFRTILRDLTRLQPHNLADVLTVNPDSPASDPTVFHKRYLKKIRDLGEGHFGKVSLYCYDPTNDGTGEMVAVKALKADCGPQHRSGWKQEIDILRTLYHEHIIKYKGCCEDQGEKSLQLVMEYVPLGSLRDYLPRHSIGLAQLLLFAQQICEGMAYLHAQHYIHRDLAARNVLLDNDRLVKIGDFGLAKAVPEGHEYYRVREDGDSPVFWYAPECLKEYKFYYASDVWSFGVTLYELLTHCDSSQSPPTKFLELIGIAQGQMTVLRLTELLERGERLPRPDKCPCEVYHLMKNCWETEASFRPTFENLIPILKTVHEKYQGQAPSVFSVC
Chain of JAK2 (O60674 whole entry): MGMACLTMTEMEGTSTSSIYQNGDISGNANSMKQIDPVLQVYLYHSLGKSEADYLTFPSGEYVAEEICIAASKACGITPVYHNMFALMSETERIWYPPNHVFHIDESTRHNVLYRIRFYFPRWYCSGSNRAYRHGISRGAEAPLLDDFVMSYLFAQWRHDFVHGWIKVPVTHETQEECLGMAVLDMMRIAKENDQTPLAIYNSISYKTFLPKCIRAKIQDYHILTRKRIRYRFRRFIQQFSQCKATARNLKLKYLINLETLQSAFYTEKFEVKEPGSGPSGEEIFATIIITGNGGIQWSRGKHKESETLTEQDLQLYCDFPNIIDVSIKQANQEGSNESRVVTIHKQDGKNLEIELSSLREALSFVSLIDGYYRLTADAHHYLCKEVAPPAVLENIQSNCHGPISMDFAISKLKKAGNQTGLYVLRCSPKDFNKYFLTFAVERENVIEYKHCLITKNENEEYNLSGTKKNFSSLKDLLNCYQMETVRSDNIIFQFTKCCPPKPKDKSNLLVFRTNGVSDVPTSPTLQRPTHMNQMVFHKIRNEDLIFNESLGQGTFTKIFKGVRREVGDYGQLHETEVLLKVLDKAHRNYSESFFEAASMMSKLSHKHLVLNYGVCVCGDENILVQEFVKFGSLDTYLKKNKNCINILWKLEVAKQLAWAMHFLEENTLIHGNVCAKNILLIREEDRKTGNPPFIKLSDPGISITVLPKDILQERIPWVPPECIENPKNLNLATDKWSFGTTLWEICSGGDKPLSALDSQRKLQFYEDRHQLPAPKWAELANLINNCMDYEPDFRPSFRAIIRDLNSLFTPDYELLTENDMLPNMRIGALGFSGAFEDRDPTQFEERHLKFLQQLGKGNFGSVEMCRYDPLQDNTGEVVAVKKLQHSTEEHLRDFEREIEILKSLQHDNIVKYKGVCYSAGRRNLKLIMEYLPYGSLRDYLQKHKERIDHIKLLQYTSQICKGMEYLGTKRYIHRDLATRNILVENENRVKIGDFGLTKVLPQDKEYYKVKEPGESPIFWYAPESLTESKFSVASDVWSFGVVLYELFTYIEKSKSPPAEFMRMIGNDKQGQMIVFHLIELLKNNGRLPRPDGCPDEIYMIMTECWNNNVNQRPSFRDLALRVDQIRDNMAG
Chain of JAK1 (P23458 whole entry): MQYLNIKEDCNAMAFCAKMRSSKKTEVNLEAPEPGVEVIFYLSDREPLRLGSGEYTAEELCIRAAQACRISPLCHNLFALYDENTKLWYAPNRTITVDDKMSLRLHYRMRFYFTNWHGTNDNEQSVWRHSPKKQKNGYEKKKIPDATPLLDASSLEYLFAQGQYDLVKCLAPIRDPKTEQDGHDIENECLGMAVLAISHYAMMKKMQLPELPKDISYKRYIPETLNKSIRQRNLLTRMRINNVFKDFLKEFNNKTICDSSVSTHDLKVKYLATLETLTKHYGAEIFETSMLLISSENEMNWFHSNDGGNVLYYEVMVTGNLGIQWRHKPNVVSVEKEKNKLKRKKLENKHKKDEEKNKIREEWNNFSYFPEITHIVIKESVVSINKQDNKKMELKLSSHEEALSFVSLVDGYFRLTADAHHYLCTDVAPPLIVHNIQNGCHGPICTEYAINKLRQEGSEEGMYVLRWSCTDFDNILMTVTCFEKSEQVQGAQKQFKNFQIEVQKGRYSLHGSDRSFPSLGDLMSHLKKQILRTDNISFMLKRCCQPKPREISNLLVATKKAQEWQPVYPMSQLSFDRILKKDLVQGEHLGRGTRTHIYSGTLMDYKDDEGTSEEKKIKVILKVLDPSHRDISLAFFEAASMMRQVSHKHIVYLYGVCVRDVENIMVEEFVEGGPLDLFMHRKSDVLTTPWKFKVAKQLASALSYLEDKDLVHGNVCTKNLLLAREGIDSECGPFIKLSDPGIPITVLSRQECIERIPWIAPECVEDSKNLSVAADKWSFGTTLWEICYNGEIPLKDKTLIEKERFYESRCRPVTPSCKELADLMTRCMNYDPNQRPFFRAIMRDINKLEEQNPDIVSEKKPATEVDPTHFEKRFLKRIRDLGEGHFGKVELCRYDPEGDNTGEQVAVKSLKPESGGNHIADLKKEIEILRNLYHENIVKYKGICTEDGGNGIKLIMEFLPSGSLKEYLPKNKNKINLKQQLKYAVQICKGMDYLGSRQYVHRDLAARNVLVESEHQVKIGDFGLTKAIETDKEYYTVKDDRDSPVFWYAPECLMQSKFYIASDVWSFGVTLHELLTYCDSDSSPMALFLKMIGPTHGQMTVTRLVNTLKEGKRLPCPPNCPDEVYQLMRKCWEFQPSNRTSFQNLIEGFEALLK

Turning to `CCS(=O)(=O)N1CC(n2cc(-c3ccnc(Nc4cnn(C)c4)c3)cn2)C1` [TDM-180642, 4-(1-(1-(ethylsulfonyl)azetidin-3-yl)-1H-pyrazol-4-yl)-N-(1-methyl-1H-pyrazol-4-yl) pyridine-2-amine], the IC50 in test [1], in test [2], in test [3] and in test [4] was not below 10 µM each time.
`CCCS(=O)(=O)N1CC(n2cc(-c3ccnc(Nc4cnn(C)c4)c3)cn2)C1` [TDM-180643, N-(1-methyl-1H-pyrazol-4-yl)-4-(1-(1-(propylsulfonyl)azetidin-3-yl)-1H-pyrazol-4-yl)pyridine-2-amine]: the IC50 in test [1], in test [2], in test [3] and in test [4] was not below 10 µM in each case.
Turning to `Cn1cc(Nc2cc(-c3cnn(C4CN(C(=O)CO)C4)c3)ccn2)cn1` [TDM-180644, 2-hydroxy-1-(3-(4-(2-((1-methyl-1H-pyrazol-4-yl)amino)pyridin-4-yl)-1H-pyrazol-1-yl)azetidin-1-yl)ethan-1-one], the half-inhibitory concentration (IC50) in test [1], in test [2], in test [3] and in test [4] was not below 10 µM in each case.
With `CC(=O)N1CC(n2cc(-c3ccnc(Nc4cnn(C)c4)c3)cn2)C1` [TDM-180645], the IC50 in test [1], in test [2], in test [3] and in test [4] was not below 10 µM throughout.
Consider `CCC(=O)N1CC(n2cc(-c3ccnc(Nc4cnn(C)c4)n3)cn2)C1` [TDM-180646, 1-(3-(4-(2-((1-methyl-1H-pyrazol-4-yl)amino)pyrimidin-4-yl)-1H-pyrazol-1-yl)azetidin-1-yl)propan-1-one], for which the IC50 in test [1], in test [2], in test [3] and in test [4] was not below 10 µM each time.
On to `CCS(=O)(=O)N1CCC(n2cc(-c3ccnc(Nc4cnn(C)c4)n3)cn2)C1` (stereo not shown) [TDM-180647, 4-(1-(1-(ethylsulfonyl)pyrrolidine-3-yl)-1H-pyrazol-4-yl)-N-(1-methyl-1H-pyrazol-4-yl)pyrimidin-2-amine], for which the concentration for half-maximal inhibition (IC50) is 1 to 10 µM in test [1], not below 10 µM in test [2], 1 to 10 µM in test [3] and not below 10 µM in test [4].
Turning to `CCCS(=O)(=O)N1CCC(n2cc(-c3ccnc(Nc4cnn(C)c4)n3)cn2)C1` (stereo not shown) [TDM-180648, N-(1-methyl-1H-pyrazol-4-yl)-4-(1-(1-(propylsulfonyl)pyrrolidine-3-yl)-1H-pyrazol-4-yl)pyrimidin-2-amine], the 50% inhibitory concentration (IC50) in test [1], in test [2], in test [3] and in test [4] was 1 to 10 µM in each case.
Consider `CCC(=O)N1CCC(n2cc(-c3ccnc(Nc4cnn(C)c4)n3)cn2)C1` (stereo not shown) [TDM-180649, 1-(3-(4-(2-((1-methyl-1H-pyrazol-4-yl)amino)pyrimidin-4-yl)-1H-pyrazol-1-yl)pyrrolidin-1-yl)propan-1-one], for which the IC50 in test [1], in test [2], in test [3] and in test [4] was not below 10 µM in each case.
In the case of `CCCC(=O)N1CCC(n2cc(-c3ccnc(Nc4cnn(C)c4)n3)cn2)C1` (stereo not shown) [TDM-180650, 1-(3-(4-(2-((1-methyl-1H-pyrazol-4-yl)amino)pyrimidin-4-y1)-1H-pyrazol-1-yl)pyrrolidin-1-yl)butan-1-one], the IC50 in test [1], in test [2], in test [3] and in test [4] was not below 10 µM throughout.
With `Cn1cc(Nc2nccc(-c3cnn(C4CCN(C(=O)CC(F)(F)F)C4)c3)n2)cn1` (stereo not shown) [TDM-180651, 3,3,3-trifluoro-1-(3-(4-(2-((1-methyl-1H-pyrazol-4-yl)amino)pyrimidin-4-yl)-1H-pyrazol-1-yl)pyrrolidine-yl)propan-1-one], the IC50 was 1 to 10 µM in test [1], not below 10 µM in test [2], not below 10 µM in test [3] and not below 10 µM in test [4].
`Cn1cc(Nc2nccc(-c3cnn(C4CCN(C(=O)C5CC5)C4)c3)n2)cn1` (stereo not shown) [TDM-180652, cyclopropyl(3-(4-(2-((1-methyl-1H-pyrazol-4-yl)amino)pyrimidin-4-yl)-1H-pyrazol-1-yl)pyrrolidin-1-yl)ketone]: the IC50 in test [1], in test [2], in test [3] and in test [4] was not below 10 µM in each case.
With `Cn1cc(Nc2nccc(-c3cnn(C4CCN(C(=O)CC#N)C4)c3)n2)cn1` (stereo not shown) [TDM-180653, 3-(3-(4-(2-((1-methyl-1H-pyrazol-4-yl)amino)pyrimidin-4-yl)-1H-pyrazol-1-yl)pyrrolidin-1-yl)-3-oxopropanenitrile], the half-inhibitory concentration (IC50) was 1 to 10 µM in test [1], 1 to 10 µM in test [2], not below 10 µM in test [3] and not below 10 µM in test [4].
`Cn1cc(Nc2nccc(-c3cnn(C4CCN(C(=O)C5CC5(F)F)C4)c3)n2)cn1` (stereo not shown) [TDM-180654, (2,2-difluorocyclopropyl)(3-(4-(2-((1-methyl-1H-pyrazol-4-yl)amino)pyrimidin-4-yl)-1H-pyrazol-1-yl)pyrrolidin-1-yl)ketone]: the IC50 in test [1] is 1 to 10 µM; in test [2], 1 to 10 µM; in test [3] it was not below 10 µM; in test [4], not below 10 µM.

Usually IC50 stands for the point on the concentration scale where inhibition reaches its midpoint.
